# Assay results published in US7649013B2, “Methods of protecting against radiation injury” (priority 2003, dated 2010).
# Tested on: C57BL/6J inbred strain female mice
# Assay: Survival after 8 Gy whole body γ-irradiation, intraperitoneal 40 mg/kg at varying time points (Example 5)
# Format: in vivo
# Conditions: for No. of animals surviving at 68 days post-irradiation: 8 animals; for Death rate (%): 68 days
# Experimental: β-lapachone is prepared at 10 mg/ml in 40% hydroxypropyl-beta-cyclodextrin (HPBCD).
# C57BL/6J inbred strain female mice (4-5 weeks old) are used. Animals are maintained in a climate-controlled animal facility.
# The animals are injected intraperitoneally with β-lapachone (40 mg/kg body weight) either 0.5 hour, 1 hour, or 4 hours before irradiation, or 10 minutes or 1 hour after irradiation.
# Whole body irradiation of animals with 8 Gy of γ-rays is carried out in air at room temperature in a gamma chamber (Gammacell 40 Exactor) with a dose-rate of 1.05 Gy/min. This radiation dose is within the range of equivalent human exposures predicted in many scenarios of radiologic or nuclear terrorist attack.
# Mice are divided in following groups (each Group comprises eight mice receiving identical treatment):
# Group III: Mice are injected with β-lapachone 40 mg/kg body weight 4 hours before radiation.
# Group IV: Mice are injected with β-lapachone 40 mg/kg body weight 1 hour before radiation.
# Group V: Mice are injected with β-lapachone 40 mg/kg body weight 0.5 hours before radiation.
# Group VI: Mice are injected with β-lapachone 40 mg/kg body weight 10 minutes after radiation.
# Group VII: Mice are injected with β-lapachone 40 mg/kg body weight 1 hour after radiation.
# Animals are irradiated with 8 Gy at 1.05 Gy/min dose-rate. After irradiation mice are returned to their cage and observed on a regular basis. Exposure to γ-rays causes lethality in animals. Importantly, treatment with β-lapachone, especially at a level of 40 mg/kg either 4, 1, or 0.5 hours prior to irradiation, diminishes the death rate.
# [1] = 40 mg/kg i.p. 10 min after Radiation 8 Gy
# [2] = 40 mg/kg i.p. 0.5 hr before Radiation 8 Gy
# [3] = 40 mg/kg i.p. 1 hr after Radiation 8 Gy
# [4] = 40 mg/kg i.p. 1 hr before Radiation 8 Gy
# [5] = 40 mg/kg i.p. 4 hr before Radiation 8 Gy
compound,measurement,setting,value
"CC1(C)CCC2=C(O1)c1ccccc1C(=O)C2=O [β-lapachone, 3,4-dihydro-2,2-dimethyl-2H-naphtho[1,2-b]pyran-5,6-dione]",Median survival time,[1],14 days
same,No. of animals surviving at 68 days post-irradiation,[1],0
same,Death rate (%),[1],100%
same,Median survival time,40 mg/kg i.p. 0.5 hr before Radiation 8 Gy (no death),>68 days
same,No. of animals surviving at 68 days post-irradiation,[2],8
same,Death rate (%),[2],0%
same,Median survival time,[3],16 days
same,No. of animals surviving at 68 days post-irradiation,[3],0
same,Death rate (%),[3],100%
same,Median survival time,[4],68 days
same,No. of animals surviving at 68 days post-irradiation,[4],4
same,Death rate (%),[4],50%
same,Median survival time,[5],21 days
same,No. of animals surviving at 68 days post-irradiation,[5],2
same,Death rate (%),[5],75%
same,Temporal survival pattern (FIG. 6),"40 mg/kg i.p. at 0.5, 1.0 or four hours prior to 8 Gy, vs control decline at 16-20 days",delayed this early decline in survival
